What all share (format): functional
Holding throughout (conditions): read-out: IZ

Experiment [1] has as its system Bacillus subtilis. The experiment in a line: Antibacterial activity against Bacillus subtilis at 100 ug/ml by cup plate method.
In experiment [2] the test system is Escherichia coli. The experiment in a line: Antibacterial activity against Escherichia coli at 100 ug/ml by cup-plate method.
Experiment [3] relates to Candida albicans. The experiment in a line: Antifungal activity against Candida albicans at 100 ug/ml by cup-plate method.
For experiment [4], the system named is Staphylococcus aureus. As to the kind of experiment: Antibacterial activity against Staphylococcus aureus at 100 ug/ml by cup-plate method.
For experiment [5], the system named is Pseudomonas aeruginosa. The experiment in a line: Antibacterial activity against Pseudomonas aeruginosa at 100 ug/ml by cup-plate method.

In the case of `O=C(NC(=S)Nc1cccc(O)c1)c1cn(CCO)c2c(cc(Cl)c3ncccc32)c1=O`, the zone of inhibition at 100 µg/mL came to 9 mm in experiment [1]; 8 mm in experiment [2]; 2 mm in experiment [3]; 8 mm in experiment [4]; 6 mm in experiment [5].
For the compound `COc1ccc(NC(=S)NC(=O)c2cn(CCO)c3c(cc(Cl)c4ncccc43)c2=O)cc1`, the zone of inhibition at 100 µg/mL in experiment [1] was 9 mm; in experiment [2], 8 mm; in experiment [3] it was 2 mm; in experiment [4], 8 mm; in experiment [5], 6 mm.
With `Cc1ccccc1NC(=S)NC(=O)c1cn(CCO)c2c(cc(Cl)c3ncccc32)c1=O`, the zone of inhibition at 100 µg/mL was determined as 8 mm in experiment [1]; 0 mm in experiment [2]; 2 mm in experiment [3]; 6 mm in experiment [4]; 4 mm in experiment [5].
Consider `COc1ccc(NC(=S)NC(=O)c2cn(CCO)c3c(cc(O)c4ncccc43)c2=O)cc1`, for which the zone of inhibition at 100 µg/mL in experiment [1] came out at 6 mm; in experiment [2] it was 8 mm; in experiment [3], 2 mm; in experiment [4], 8 mm; in experiment [5], 8 mm.
Regarding `N#Cc1cc([N+](=O)[O-])ccc1NS(=O)(=O)c1ccc(NC(=O)c2cn(CCO)c3c(cc(Cl)c4ncccc43)c2=O)cc1`, the zone of inhibition at 100 µg/mL in experiment [1] stood at 9 mm; in experiment [2], 8 mm; in experiment [3], 2 mm; in experiment [4], 8 mm; in experiment [5] it was 8 mm.
Regarding `O=C(Nc1ccc(S(=O)(=O)Nc2cccc([N+](=O)[O-])c2)cc1)c1cn(CCO)c2c(cc(O)c3ncccc32)c1=O`, the zone of inhibition at 100 µg/mL in experiment [1] is 8 mm; in experiment [2], 8 mm; in experiment [3], 2 mm; in experiment [4], 8 mm; in experiment [5] it was 7 mm.
For `N#Cc1cc([N+](=O)[O-])ccc1NS(=O)(=O)c1ccc(NC(=O)c2cn(CCO)c3c(cc(O)c4ncccc43)c2=O)cc1`, the zone of inhibition at 100 µg/mL came to 6 mm in experiment [1]; 6 mm in experiment [2]; 2 mm in experiment [3]; 8 mm in experiment [4]; 8 mm in experiment [5].
For the compound `Cc1ccc(NC(=O)c2cn(CCO)c3c(cc(O)c4ncccc43)c2=O)cc1`, the zone of inhibition at 100 µg/mL in experiment [1] turned out to be 8 mm; in experiment [2], 10 mm; in experiment [3] it was 3 mm; in experiment [4], 9 mm; in experiment [5] it was 9 mm.
On to `COc1ccc(NS(=O)(=O)c2ccc(NC(=O)c3cn(CCO)c4c(cc(Cl)c5ncccc54)c3=O)cc2)cc1`, for which the zone of inhibition at 100 µg/mL worked out at 10 mm in experiment [1]; 9 mm in experiment [2]; 3 mm in experiment [3]; 9 mm in experiment [4]; 10 mm in experiment [5].
As for `O=C(Nc1cccc(Cl)c1)c1cn(CCO)c2c(cc(Cl)c3ncccc32)c1=O`, the zone of inhibition at 100 µg/mL in experiment [1] was 9 mm; in experiment [2], 7 mm; in experiment [3], 3 mm; in experiment [4], 8 mm; in experiment [5] it was 7 mm.
As for `COc1ccccc1NC(=O)c1cn(CCO)c2c(cc(Cl)c3ncccc32)c1=O`, the zone of inhibition at 100 µg/mL in experiment [1] was found to be 10 mm; in experiment [2] it was 8 mm; in experiment [3], 3 mm; in experiment [4], 9 mm; in experiment [5], 8 mm.
As to `O=C(Nc1cccc([N+](=O)[O-])c1)c1cn(CCO)c2c(cc(Cl)c3ncccc32)c1=O`, the zone of inhibition at 100 µg/mL in experiment [1] is 6 mm; in experiment [2], 9 mm; in experiment [3], 3 mm; in experiment [4] it was 9 mm; in experiment [5], 9 mm.

The values above are taken from ChEMBL document CHEMBL3044825, “Synthesis and in vitro microbial activities of amides of pyridoquinolone” (2011).
